In patent US20180332852A1, “Increased Almond Yields with Brassinosteroid Application” (Repar Corporation, priority 2017, published 2018):

Key:
non Pareil almond tree = test: Experiment 2: effects of HBR on nut size and fruit set in almond trees; type: in vivo, Prunus dulcis; conditions: 1 ppm HBR sprayed two weeks after full bloom; final fruit set at harvest
From the text: The effects of HBR on nut size and fruit set were studied in a population of 20 year old almond trees in Paine, Region 6 of Chile. The experimental design used a randomized block pattern with 10 replications of each experimental condition. Each experimental unit was a shoot of a non […] almond tree which was pollinated by bees in Solano and Carmel cultivars. Sufficient bee colonies were used for pollination of the orchard, including trees not receiving an experimental treatment. Flowers at full bloom were tallied and two weeks later the test branches were sprayed with either a control containing just water, a solution containing HBR at a rate of 1 ppm, a 10 ppm solution of HBR, or a solution of 10 ppm HBR and 10 ppm CPPU. Final fruit set on each test branch was taken at harvest. The percentage of fruit set was calculated by dividing the number of fruit per branch by the number of flowers counted before treatment and multiplying the result by 100.

[1] = test system: Branches of Carmel cultivars (almond); test: Experiment 3: pollen germination, pollen tube length and fruit set after treatment during flowering; type: in vivo, Prunus dulcis; conditions: percent of flowers containing germinated pollen, versus control
Procedure: Branches of Carmel cultivars were selected from a mature almond orchard further comprising Solando and Non […] cultivars. During flowering, the selected branches received either a brassinosteroid treatment (BL, EBL, or HBR) (FIGS. 1, 2, and 3) or a gibberellic acid (FIG. 4) treatment. Four hours after treatment the percent of flowers which contained germinated pollen was determined. Twenty-four hours after treatment the length of each pollen tube was measured. Finally, fruit set was tabulated 50 days after fertilization. Results across the brassinosteroids were similar. […] Fruit set at 50 days after flowering was greater in the BR group than either GA3 or control.

[2] = diluted solution; pH should be no greater than 7.0, optimally between 4.0 and 5.0; cited from earlier work

CC[C@@H](C(C)C)C(O)C(O)[C@@H](C)[C@H]1CC[C@H]2[C@@H]3COC(=O)[C@H]4C[C@H](O)[C@H](O)C[C@]4(C)[C@H]3CC[C@]12C (stereo in doubt) [HBR, homobrassinolide]
increase of fruit set over control (non Pareil almond tree): 21.1%
pollen germination after four hours [1]: most effective treatment
stability at alkaline pH levels [2]: not stable
